# Experimental data taken from article PMC3637032 (Clinical Pharmacology : Advances and Applications, 2013).
# Legend:
# [1] = format: in vivo, human
# [2] = test system: hOCT-1; conditions: cited from earlier work
# [3] = test system: gastric pH; conditions: cited from earlier work
# [4] = test system: P-glycoprotein; conditions: apixaban: ref not given; famotidine: ref 20; cited from earlier work
# [5] = cited from earlier work
# [6] = test system: hOCT-2; conditions: cited from earlier work
# [7] = test system: human organic cation transporter (hOCT)-3; conditions: cited from earlier work
# [8] = Stability of apixaban in human plasma; format: in vitro ADME; conditions: at −20°C
# [9] = cited from earlier work; remark: listed apart in the source
# [10] = test system: breast cancer resistance protein; conditions: cited from earlier work
# [11] = format: in vivo, human; remark: listed apart in the source
# [12] = test system: hOCT-2 transporters; conditions: in vitro findings; ref data on file, Bristol-Myers Squibb, Princeton, NJ, USA; cited from earlier work
# [13] = compound lacks ionizable groups; cited from earlier work
# [14] = test system: coagulation factor Xa; conditions: cited from earlier work
compound,measurement,setting,value
NC(N)=Nc1nc(CSCCC(N)=NS(N)(=O)=O)cs1 [famotidine],"Effect of coadministration on apixaban Cmax, AUC0–T, or AUC∞","[1]; famotidine 40 mg 3 hours before apixaban 10 mg, healthy subjects",no effect
same,Inhibition of hOCT-1,[2],moderate inhibitor
same,Time for gastric pH to return to baseline after cessation of administration,[3],10–12 hours
same,Time of maximal increases in gastric pH post-dose,[3],1–3 hours
same,P-glycoprotein substrate,[4],substrate
same,Metabolism,[5],minimally metabolized
same,Potential for CYP-mediated drug–drug interactions,[5],minimal potential
same,Time of maximal plasma concentrations after oral administration,[5],2 to 3 h
same,Inhibition of hOCT-2,[6],moderate inhibitor
same,Inhibition of hOCT-3,[7],potent inhibitor
"COc1ccc(-n2nc(C(N)=O)c3c2C(=O)N(c2ccc(N4CCCCC4=O)cc2)CC3)cc1 [Apixaban, 1-(4-methoxyphenyl)-7-oxo-6-(4-(2-oxopiperidin-1-yl)phenyl)-4,5,6,7-tetrahydro-1H-pyrazolo[3,4-c]pyridine-3-carboxamide]",AUC(0-inf),"[1]; both, human, plasma, po, 10 mg",2220 ng·h/mL
same,AUC(0-t),"[1]; both, human, plasma, po, 10 mg",2190 ng·h/mL
same,Cmax,"[1]; both, human, plasma, po, 10 mg",230 ng/mL
same,half-life,"[1]; both, human, plasma, po, 10 mg",9.2 h
same,Predose period 2 apixaban concentration as fraction of Cmax,[1]; six subjects with measurable predose concentrations,< 1.5%
same,Stability in human plasma,[8],at least 589 days
same,Effect of food on apixaban exposure,[9],no relevant effect
same,Renal excretion as share of total clearance,[9],approximately 27%
same,Elimination half-life,[9]; clinical studies,approximately 12 hours
same,Oral bioavailability,[9]; clinical studies,approximately 50%
same,Breast cancer resistance protein substrate,[10],substrate
same,"Deaths, serious adverse events, discontinuations, bleeding-related adverse events","[11]; 18 healthy subjects, both treatment periods","No deaths, serious adverse events, discontinuations due to adverse events, or clinically relevant bleeding-related adverse events"
same,Tolerability,"[11]; apixaban 10 mg alone and with famotidine 40 mg, healthy subjects",well tolerated
same,P-glycoprotein substrate,[4],substrate
same,hOCT-2 substrate,[12],not a substrate
same,Aqueous solubility dependence on pH,[13],not affected by changes in pH
same,Factor Xa inhibition (description),[14],"potent, reversible, direct, and highly selective inhibitor"
